The values below are quoted from earlier work in patent US20170173276A1, “SYSTEM AND METHOD FOR DELIVERING AN ANTI-ADHESIVE SUBSTANCE TO A BODY CAVITY” (Northgate Technologies Inc., priority 2003, published 2017).

The conditions of series [1]: administration in liquid form; shown in some studies.
The conditions of series [2]: general/typical value.

As to `CCCCN1CCCCC1C(=O)Nc1c(C)cccc1C` (stereo not drawn) [Bupivacaine], the post-operative shoulder pain entry in series [1] is recorded as “reducing post-operative shoulder pain”.

For unfractionated heparin, in series [2], the half life is 1 to 2 h. As for low molecular weight heparin, in series [2], the half life is 4 to 5 h.
